In publication PMC10057887, “Analysis of Essential Isoprene Metabolic Pathway Proteins in Variovorax sp. Strain WS11” (Applied and Environmental Microbiology, 2023):

Columns and labels:
AD45-AldH [1] = assay: NADH formation at […] nm, substrate inhibition model at high concentrations; type: biochemical, Rhodococcus sp. AD45; conditions: NAD+ 5 mM, 50 mM sodium carbonate pH 10.0, racemic substrate
WS11-AldH [2] = tested on: T1, WS11-AldH; assay: as above; type: biochemical, Variovorax sp. WS11; conditions: NAD+ 5 mM, 50 mM sodium carbonate pH 10.0, racemic substrate
T1 construct: isoprene cluster copy, on megaplasmid

AD45-AldH [3] = assay: NADH formation at […] nm, Michaelis-Menten fit; type: biochemical, Rhodococcus sp. AD45; conditions: NAD+ 5 mM, 50 mM sodium carbonate pH 10.0
WS11-AldH [4] = tested on: T1, WS11-AldH; assay: NADH formation at […] nm, Michaelis-Menten fit; type: biochemical, Variovorax sp. WS11; conditions: NAD+ 5 mM, 50 mM sodium carbonate pH 10.0

| SMILES | Km (AD45-AldH [1]) [µM] | Km (WS11-AldH [2]) [µM] | Km (AD45-AldH [3]) [µM] | Km (WS11-AldH [4]) [mM] | Km (WS11-AldH [4]; predicted Km, not saturated at 10 mM) [mM] |
| --- | --- | --- | --- | --- | --- |
| CCC(C)C=O (racemic) [2-methylbutanal] | 30 | 120 |  |  |  |
| CCCC=O [butanal] |  |  | 80 | 0.69 |  |
| CCC=O [propanal] |  |  | 570 |  | ~10.9 |
